Test results as given in ChEMBL document CHEMBL3232796, “Synthesis and carbonic anhydrase I, II, IX and XII inhibition studies of 4-N,N-disubstituted sulfanilamides incorporating 4,4,4-trifluoro-3-oxo-but-1-enyl, phenacylthiourea and imidazol-2(3H)-one/thione moieties” (Bioorg Med Chem Lett, 2014).

What follows are compounds tested against Carbonic anhydrase 9 (Homo sapiens, UniProt Q16790).
Description: Inhibition of human recombinant transmembrane tumor associated carbonic anhydrase-9 incubated for 15 mins prior to testing by stopped-flow CO2 hydrase assay

Structure (SMILES)	Ki
NS(=O)(=O)c1ccc(N(/C=C/C(=O)C(F)(F)F)CC(=O)c2ccc(F)cc2)cc1	13 nM
NS(=O)(=O)c1ccc(N(/C=C/C(=O)C(F)(F)F)Cc2ccc(Cl)cc2)cc1	33 nM
NS(=O)(=O)c1ccc(N(/C=C/C(=O)C(F)(F)F)Cc2ccccc2)cc1	39 nM
NS(=O)(=O)c1ccc(N(/C=C/C(=O)C(F)(F)F)CC(=O)c2ccc(Cl)cc2)cc1	17 nM
CCOC(=O)NC(=S)N(CC(=O)c1ccc(Cl)cc1)c1ccc(S(N)(=O)=O)cc1	25 nM
Cc1ccc(C(=O)CN(/C=C/C(=O)C(F)(F)F)c2ccc(S(N)(=O)=O)cc2)cc1	18 nM
NS(=O)(=O)c1ccc(-n2cc(-c3ccccc3)[nH]c2=O)cc1	34 nM
NS(=O)(=O)c1ccc(N(/C=C/C(=O)C(F)(F)F)CC(=O)c2ccccc2)cc1	9.5 nM

The remaining lines, values ahead:

Ki	Structure (SMILES)
37 nM	NS(=O)(=O)c1ccc(-n2cc(-c3ccc(F)cc3)[nH]c2=S)cc1
13 nM	NS(=O)(=O)c1ccc(-n2cc(-c3ccccc3)[nH]c2=S)cc1
25 nM	NS(=O)(=O)c1ccc(-n2cc(-c3ccc(F)cc3)[nH]c2=O)cc1
